Reference: patent US8431527B2, “Methods for alleviating deleterious effects of 3-deoxyglucosone” (Fox Chase Cancer Center, priority 1997, dated 2013)

Assays:
FL3P = assay: Kidney FL3P after injection of synthetic fructose-lysine; type: in vivo; conditions: non-diabetic rats
Protocol: This identification was confirmed in two ways. Authentic fructose-lysine-3-phosphate (FL3P) was synthesized by the procedure disclosed in Example 2, below, and shown to co-resonate in the ^31P NMR spectrum with the peak in diabetic rat kidneys. Synthetic fructose-lysine was also injected into non-diabetic rats.

kidney proteins = system: kidney proteins; parameters: species or system rats; conditions: rat, in vivo
Protocol: Two rats were injected daily with 5 μmols. of either FL or mannitol (used as a control) for 5 days. The animals were sacrificed and the kidneys removed and dissected into the cortex and medulla. Tissues were homogenized in 5 volumes of 50 mM Tris.HCl containing 150 mM KCl, 15 mM MgCl2 and 5 mM DTT, pH 7.5. Cellular debris was removed by centrifugation at 10,000 g for 15 minutes, and the supernate was then centrifuged at 150,000 g for 70 minutes. The soluble proteins were analyzed by SDS PAGE on 12% polyacrylamide gels as well as on 4-15 and 10-20% gradient gels.

lysine recovery pathway = assay: Urinary FL, 3DG and 3DF in humans following ingestion of glycated protein; type: in vivo; conditions: seven volunteers, 2 g dose of fructoselysine as glycated protein food
Protocol: c. Experimental protocol: Volunteers spent two days on a fructoselysine-free diet and then consumed 22.5 g of the food product prepared as described herein, thus effectively receiving a 2 g. dose of fructoselysine. Urine was collected at 2 hour intervals for 14 hours and a final collection was made at 24 hours. d. Measurement of FL, 3DG and 3DF in urine: FL was measured by HPLC with a Waters 996 diode Array using a Waters C18 Free Amino Acid column at 46° and a gradient elution system of acetonitrile-methyl alcohol-water (45:15:40) into acetonitrile-sodium acetate-water (6:2:92) at 1 ml./min. Quantitation employed an internal standard of meglumine. 3DF was measured by HPLC after deionization of the sample. Analyses were performed on a Dionex DX-500 HPLC system employing a PA1 column (Dionex) and eluting with 32 mM sodium hydroxide at 1 ml./min. Quantitation was performed from standard curves obtained daily with synthetic 3DF. 3DG was measured by GC-MS after deionization of the sample. 3DG was derivatized with a 10-fold excess of diaminonaphthalene in PBS. Ethyl acetate extraction gave a salt free fraction which was converted to the trimethyl silyl ethers with Tri-Sil (Pierce). Analysis was performed on a Hewlett-Packard 5890 selected ion monitoring GC-MS system. […] Quantitation of 3DG employed selected ion monitoring using an internal standard of U-13C-3DG.

[1] = Stability of FL3P in aqueous solution; type: physicochemical; conditions: degrades to 3DG, lysine and inorganic phosphate
From the text: FL3P is not stable in aqueous solution. It rapidly degrades to form 3DG, lysine and inorganic phosphate. This reaction also occurs in vivo. It is not currently know if the degradation of FL3P in vivo is a spontaneous or enzyme catalyzed reaction. It is strongly suspected, however, that enzymatic catalysis is involved, as the production of 3DG from fructose lysine occurs very rapidly in intact kidney.

[2] = Locus of 3-O-methyl sorbitollysine uptake in vivo (tissue, urine, plasma recovery); parameters: species or system rats
Protocol: Six rats were injected intraperitoneally with […] (4.4 mg) of 3-O-methyl sorbitollysine. The rats' urine was collected for 3 hours, after which the rats were sacrificed. The tissues to be analyzed were removed and freeze clamped in liquid nitrogen. Perchloric acid extracts of the tissues were used for metabolite analysis. The tissues examined were taken from the brain, heart, muscle, sciatic nerve, spleen, pancreas, liver and kidney. Plasma and urine were also analyzed.

3DG = assay: 3-O-methyl sorbitollysine lowers plasma 3DG in diabetic and non-diabetic rats; type: in vivo; conditions: Day 8
Protocol: A cohort of twelve diabetic rats was divided into two groups of six. The first group received saline-only injections, and the second received injections of 3-O-methyl sorbitollysine in saline solution. The same procedure was conducted on a cohort of twelve non-diabetic rats.

3-deoxyglucosone = assay: Reduction of urinary and plasma 3-deoxyglucosone after intraperitoneal injection; type: in vivo; conditions: rats, 10 μmols intraperitoneal
Protocol: Urine was collected from six rats for three hours. A plasma sample was also obtained. The animals were then given 10 μmols of either sorbitollysine, mannitollysine, or galactitollysine by intraperitoneal injection. Urine was collected for another three hours, and a plasma sample obtained at the end of the three hours.
3-deoxyglucosone was measured in these samples, as described in Example 5, below, and variable volumes were normalized to creatinine. The average reduction of urinary 3-deoxyglucosone was 50% by sorbitollysine, 35% by mannitollysine and 35% by galactitollysine. Plasma 3-deoxyglucosone was reduced 40% by sorbitollysine, 58% by mannitolysine and 50% by galactitollysine.
c. Use of meglumine to reduce urinary 3-deoxyglucosone. Three rats were treated as in b), immediately above, except meglumine (100 μmols) was injected intraperitoneally instead of the above-mentioned lysine derivatives. Three hours after the injection the average 3-deoxyglucosone concentrations in the urine were decreased 42%.
3DG was measured by GC-MS after deionization of the sample. 3DG was derivatized with a 10-fold excess of diaminonaphthalene in PBS. Ethyl acetate extraction gave a salt free fraction which was converted to the trimethyl silyl ethers with Tri-Sil (Pierce). […] Quantitation of 3DG employed selected ion monitoring using an internal standard of U-13C-3DG.

[3] = 3 hours after intraperitoneal injection

NC(CCCCNCC(=O)C(O)C(O)C(O)CO)C(=O)O (centres unmarked) [FL, 1-deoxy-1-(ε-aminolysine)-fructose]
levels of FL3P in kidneys following injection (FL3P): substantial increase | SDS PAGE of soluble kidney proteins vs mannitol-injected animal (kidney proteins): lower molecular weight bands were missing or visually reduced | time of peak urinary 3DF excretion after the FL bolus (lysine recovery pathway): about 4 hours

NC(CCCCNCC(=O)C(OP(=O)(O)O)C(O)C(O)CO)C(=O)O (centres unmarked) [FL3P, fructose-lysine-3-phosphate]
stability in aqueous solution [1]: not stable

COC(C(O)CNCCCCC(N)C(=O)O)C(O)C(O)CO (centres unmarked) [3-O-methyl Sorbitollysine, 3-O-methyl sorbitollysine]
compound present in plasma [2, 3]: plasma did not | tissue extracts containing compound (brain, heart, muscle, sciatic nerve, spleen, pancreas, liver, kidney) [2, 3]: only tissue extract found to contain 3-O-methyl sorbitollysine was that of the kidney | compound present in urine ([2]; urine collected for 3 hours): urine also contained 3-O-methyl sorbitollysine | percent reduction of plasma 3DG vs saline control (3DG; diabetic rats): 53% | percent reduction of plasma 3DG vs saline control (3DG; non-diabetic rats): 43%

galactitol lysine [galactitollysine]
plasma 3-deoxyglucosone reduced (3-deoxyglucosone; plasma at end of three hours): 50% | average reduction of urinary 3-deoxyglucosone (3-deoxyglucosone; urine collected three hours after vs before, normalized to creatinine): 35%
